Measurements published in US7285395B2, “Stearoyl-CoA desaturase 4 gene” (Wisconsin Alumni Research Foundation, priority 2004, dated 2007).

How the values were obtained:
Assay type in all cases: in vivo, mouse
Conditions in all cases: heart, 129SV mice, chow diet containing 0.025% T0901317 fed for 2 days
[1] = tested on: mSCD4; assay: quantitative RT-PCR of mSCD4 mRNA in hearts of mice fed test diets
Experimental: (§1) The mice were fed the following diets. A, a high carbohydrate fat-free diet (CHO-FF). B, high carbohydrate fat-free diet supplemented with fish oil (CHO-FO) that was fed for 4 days. C, chow diet supplemented with the LXRα agonist T0901317 (LXR) and fed for 2 days. Total RNA from hearts of mice from each group (n=4) was subjected to quantitative RT-PCR using specific primers as described in the example below. The fold change was calculated after correction for the levels of cyclophilin used as a standard. Each value represents the mean±S.E. (n=4). *, p<0.01; **, p<0.001 versus wild type (Student's t test).
(§2) Animals and Diets—Male C57BL6J and ob/ob mice were obtained from the Jackson Laboratory (Bar Harbor, Me.). 129S6/SvEv mice were purchased from Taconic (Germantown, N.Y.). […]
(§3) Cloning and Expression of the Mouse SCD4 cDNA—A BLAST search of the mouse genomic data base identified a gene with exon sequences highly homologous to the amino acid sequence of mouse SCD1, 2, and 3 (GenBank™ accession numbers AH—002082, M26270, and AF272037, respectively). Using the genomic sequence, a candidate open reading frame of the putative SCD4 was cloned by synthesizing a forward and a reverse primer. […]

[2] = tested on: mSCD1; assay: quantitative RT-PCR of mSCD1 mRNA in hearts of mice fed test diets
Experimental: as §1, §2, §3

[3] = tested on: mSCD2; assay: quantitative RT-PCR of mSCD2 mRNA in hearts of mice fed test diets
Experimental: as §1, §2, §3

Compound: O=S(=O)(c1ccccc1)N(CC(F)(F)F)c1ccc(C(O)(C(F)(F)F)C(F)(F)F)cc1 [T0901317]
- induction of mouse SCD4 mRNA [1]: 60 fold
- induction of mouse SCD1 mRNA [2]: 18 fold
- induction of mouse SCD2 mRNA [3]: 12 fold
